Patent US20110009374A1, “METHOD OF WOUND HEALING AND SCAR MODULATION” (priority 2009, published 2011)
Several values for one entry are separate records, joined by “and”; a condition that tells them apart may be missing. Equal values may be shown once.

Assays:
Format in all cases: in vivo
[1] = test system: linear subcutaneous-deep incision wounds in hairless mice (Skh:HR-1); assay: Example 2 scar evaluation by Vancouver Scale at day 21 and gross evaluation; parameters: key: Vancouver Scale subscores (18-point total), mean of two observers
Procedure: (§1) Twelve hairless mice (Skh:HR-1) with an average weight of […] were treated topically with a local anesthetic (LMX-4, Ferndale Laboratories, Inc.) for 30 minutes prior to wounding for dermal anesthesia. Antiseptics were not used because of the possibility of their local effect on the wound healing process.
(§2) The mice were subdivided into two groups, A and B. Each mouse received three linear, 10 mm long, subcutaneous-deep incision wounds parallel to the spinal column. The first incision was near the spinal column on the left side (C), one at a position 10 mm away from the first on the same side (L), and one on the right side about 10 mm from the center line or spinal column (R). All incision wounds were made with a 0.3 mm blade surgical blade. Because of the loose nature of the hairless mouse epidermis the wounds spread to as wide as 3 mm. Each mouse was housed separately.
(§3) 1) 0.25% Formulations: water (79.75%), ethanol (18%), methylprednisolone acetate or prednisolone acetate (0.25%), and ammonium acryloyldimethyltaurate/VP copolymer (2%).
(§4) 2) 1% Formulations: water (79%), ethanol (18%), methylpredinisolone acetate or prednisolone acetate (1%), and ammonium acryloyldimethyltaurate/VP copolymer (2%).
(§5) In Group A, wounds C and L were treated with the 0.25% and 1% methylprednisolone acetate formulations, respectively, and wound R was the control or untreated wound. In Group B, wounds C and L were treated with the 0.25% and 1% prednisolone acetate formulations, respectively and wound R was the control. The study drug (methylprednisolone or prednisolone) was applied to the treatment wounds twice daily (8 hours apart) beginning 1 h after the incision on day 1 and continuing through day 21. The wounds were far enough apart to avoid the spread of the treatment gel from the treated wound to the control wound. No additional physical barrier, such as a gauze bandage, was used.
(§6) Each mouse was kept in its cage during days 14-21. On day 21, each scar was assessed according to the Vancouver Scale (18 points) under magnification by two observers independently and the scores were averaged and recorded. Progressive re-epithelializaton of the wound surface from the wound edges continued until the wound surface was completely closed at a time between days 14 and 21.

[2] = test system: linear subcutaneous-deep incision wounds in hairless mice (Skh:HR-1); assay: Example 2 wound healing in hairless mice: healing evaluation by wound width
Procedure: as §1, §2, §3, §4, §5
Healing evaluation was made by measuring wound closure, which was assessed by the width of the wound. The width of each scar was measured with digital calipers at the widest point while subject was lying motionless, on its ventral side. Digital photographs were taken to record the healing process. The mean width of wound was recorded on days 1, 3, 5, 7, 9, 11, 13, 15, 17, 19 and 21.

[3] = test system: linear subcutaneous-deep wounds in hairless mice (Skh:HR-1); assay: Example 1 scar evaluation by Vancouver Scale at day 21; details: 1% formulation
Procedure: as §1, with “for dermal anesthesia for” for “for”, “wounding.” for “wounding for dermal anesthesia.”
(§7) Two linear subcutaneous-deep wounds were made bilaterally with a 0.3 mm blade surgical knife on the dorsal side of each subject approximately 10 mm on each side of the spinal column. Because of the loose nature of the hairless mouse epidermis the wounds spread to as wide as 3 mm. Each mouse was housed separately.
(§8) The test formulation comprised the following ingredients (by weight percent): water (79%), ethanol (18%), prednisolone acetate (1%), and ammonium acryloyldimethyltaurate/VP copolymer (2%).
(§9) In each test subject, the right wound was assigned to a control (i.e., no treatment) and the left would was treated with a the 1% prednisolone acetate test formulation, applied twice daily (8 hours apart) beginning 1 h after the incision on day 1 and continuing through day 21. The wounds were about 20 mm apart to prevent the treatment gel from migrating from the treatment wound to the control wound.
as §6, with “re-epithelialization” for “re-epithelializaton”

[4] = test system: linear subcutaneous-deep wounds in hairless mice (Skh:HR-1); assay: Example 1 wound healing in hairless mice: healing evaluation by wound width; details: for Scar Width at widest margin: individual subject, 1% formulation topically twice daily; for Scar Width at widest margin / Scar Width at widest margin, Mean: L wound; for Scar Width at widest margin, Mean: mean of 12 subjects, 1% formulation twice daily
Procedure: as §1, with “for dermal anesthesia for” for “for”, “wounding.” for “wounding for dermal anesthesia.”
as §7, §8, §9
Healing evaluation was made by measuring wound closure, which was assessed by the width of the wound. Evaluation was made on days 1, 3, 5, 10, and 14. The width of each scar was measured with digital calipers at the widest point while subject was lying motionless on its ventral side. Digital photographs were taken to record healing process.

[5] = Day 1, wound C, 0.25% formulation twice daily
[6] = Day 1, wound L, 1% formulation twice daily
[7] = Day 3, wound C, 0.25% formulation twice daily
[8] = Day 3, wound L, 1% formulation twice daily
[9] = Day 5, wound C, 0.25% formulation twice daily
[10] = Day 5, wound L, 1% formulation twice daily
[11] = Day 7, wound C, 0.25% formulation twice daily
[12] = Day 7, wound L, 1% formulation twice daily
[13] = Day 9, wound C, 0.25% formulation twice daily
[14] = Day 9, wound L, 1% formulation twice daily
[15] = Day 11, wound C, 0.25% formulation twice daily
[16] = Day 11, wound L, 1% formulation twice daily
[17] = Day 13, wound C, 0.25% formulation twice daily
[18] = Day 13, wound L, 1% formulation twice daily
[19] = Day 15, wound C, 0.25% formulation twice daily
[20] = Day 15, wound L, 1% formulation twice daily
[21] = Day 17, wound C, 0.25% formulation twice daily
[22] = Day 17, wound L, 1% formulation twice daily
[23] = Day 19, wound C, 0.25% formulation twice daily
[24] = Day 19, wound L, 1% formulation twice daily
[25] = Day 21, wound C, 0.25% formulation twice daily
[26] = Day 21, wound L, 1% formulation twice daily
[27] = Day 21, individual subject, L wound
[28] = Day 21, mean of 12 subjects, L wound

CC(=O)OCC(=O)[C@@]1(O)CC[C@H]2[C@@H]3C[C@H](C)C4=CC(=O)C=C[C@]4(C)[C@H]3[C@@H](O)C[C@@]21C [methylprednisolone acetate]
Mean Vancouver Scale Scar Scoring, Height ([1]; wound C, 0.25% formulation): 0
Mean Vancouver Scale Scar Scoring, Pigmentation ([1]; wound C, 0.25% formulation): 1
Mean Vancouver Scale Scar Scoring, Pliability ([1]; wound C, 0.25% formulation): 2.0
Mean Vancouver Scale Scar Scoring, Vascularity ([1]; wound C, 0.25% formulation): 0
Mean Vancouver Scale Scar Scoring, Height ([1]; wound L, 1% formulation): 0
Mean Vancouver Scale Scar Scoring, Pigmentation ([1]; wound L, 1% formulation): 1
Mean Vancouver Scale Scar Scoring, Pliability ([1]; wound L, 1% formulation): 1.5
Mean Vancouver Scale Scar Scoring, Vascularity ([1]; wound L, 1% formulation): 0
Mean Wound Width at Widest Margin [2, 5]: 3.1 ± 0.3 mm
Mean Wound Width at Widest Margin [2, 6]: 3.0 ± 0.2 mm
Mean Wound Width at Widest Margin [2, 7]: 2.5 ± 0.2 mm
Mean Wound Width at Widest Margin [2, 8]: 2.4 ± 0.3 mm
Mean Wound Width at Widest Margin [2, 9]: 2.0 ± 0.3 mm
Mean Wound Width at Widest Margin [2, 10]: 1.9 ± 0.4 mm
Mean Wound Width at Widest Margin [2, 11]: 1.5 ± 0.2 mm
Mean Wound Width at Widest Margin [2, 12]: 1.4 ± 0.2 mm
Mean Wound Width at Widest Margin [2, 13]: 1.0 ± 0.3 mm
Mean Wound Width at Widest Margin [2, 14]: 0.9 ± 0.3 mm
Mean Wound Width at Widest Margin [2, 15]: 0.5 ± 0.2 mm
Mean Wound Width at Widest Margin [2, 16]: 0.5 ± 0.1 mm
Mean Wound Width at Widest Margin [2, 17]: 0.1 ± 0.3 mm
Mean Wound Width at Widest Margin [2, 18]: 0.1 ± 0.2 mm
Mean Wound Width at Widest Margin [2, 19]: 0 mm
Mean Wound Width at Widest Margin [2, 20]: 0 mm
Mean Wound Width at Widest Margin [2, 21]: 0 mm
Mean Wound Width at Widest Margin [2, 22]: 0 mm
Mean Wound Width at Widest Margin [2, 23]: 0 mm
Mean Wound Width at Widest Margin [2, 24]: 0 mm
Mean Wound Width at Widest Margin [2, 25]: 0 mm
Mean Wound Width at Widest Margin [2, 26]: 0 mm

CC(=O)OCC(=O)[C@@]1(O)CC[C@H]2[C@@H]3CCC4=CC(=O)C=C[C@]4(C)[C@H]3[C@@H](O)C[C@@]21C [prednisolone acetate]
Averaged Vancouver Scale Scar Scoring, Height [3, 27]: 0
Averaged Vancouver Scale Scar Scoring, Pigmentation [3, 27]: 1.5 and 1 (11×)
Averaged Vancouver Scale Scar Scoring, Pliability [3, 27]: 1 (10×) and 1.5 (2×)
Averaged Vancouver Scale Scar Scoring, Vascularity [3, 27]: 1 (2×) and 0 (10×)
Averaged Vancouver Scale Scar Scoring, Height, Mean [3, 28]: 0
Averaged Vancouver Scale Scar Scoring, Pigmentation, Mean [3, 28]: 1.1
Averaged Vancouver Scale Scar Scoring, Pliability, Mean [3, 28]: 1.1
Averaged Vancouver Scale Scar Scoring, Vascularity, Mean [3, 28]: 0.16
global assessment of scars by Vancouver Scale, treated vs control ([3]; day 21): significant difference in pliability, pigmentation and vascularity
pigmentation vs control ([3]; day 21): marginally better
vascularity in treated areas ([3]; day 21): returned to virtually normal
redness and marginal line of treated wounds vs control ([4]; 1% formulation): less redness and a finer marginal line
scars healed with some degree of contracture ([4]; 1% formulation, number of scars out of 12): 8 out of the 12
signs of infection ([4]; 1% formulation, treated and control wounds): Neither the control nor the treated wounds showed signs of infection
Scar Width at widest margin ([4]; Day 1): 3.0 mm (2×) and 2.6 mm and 2.9 mm (4×) and 2.7 mm (3×) and 2.8 mm (2×)
Scar Width at widest margin, Mean ([4]; Day 1): 2.8 mm
Scar Width at widest margin ([4]; Day 3): 1.9 mm (3×) and 1.8 mm (4×) and 1.4 mm and 1.5 mm and 1.7 mm (3×)
Scar Width at widest margin, Mean ([4]; Day 3): 1.8 mm
Scar Width at widest margin ([4]; Day 5): 1.7 mm (3×) and 1.6 mm (3×) and 1.1 mm and 1.3 mm and 1.4 mm (3×) and 1.5 mm
Scar Width at widest margin, Mean ([4]; Day 5): 1.5 mm
Scar Width at widest margin ([4]; Day 10): 0.6 mm (4×) and 0.2 mm and 0.4 mm (2×) and 0.5 mm (3×) and 0.3 mm and 0.7 mm
Scar Width at widest margin, Mean ([4]; Day 10): 0.5 mm
Scar Width at widest margin ([4]; Day 14): 0.2 mm (2×) and 0.0 mm (10×)
Scar Width at widest margin, Mean ([4]; Day 14): 0 mm and 0.0 mm
mean difference in wound width, treated vs control ([4]; day 3, 1% formulation): 0.4 mm
mean difference in wound width, treated vs control ([4]; day 5, 1% formulation): 0.4 mm
mean difference in wound width, treated vs control ([4]; day 7, 1% formulation): 0.5 mm
mean difference in wound width, treated vs control ([4]; day 10, 1% formulation): 0.5 mm
mean difference in wound width, treated vs control ([4]; day 14, 1% formulation): 0.7 mm
retarding of healing phases ([4]; evaluation and healing period, 1% formulation): No apparent retarding of any phase of healing
contracture of healed epidermal layer vs control ([4]; evident by day 5, 1% formulation): less contracture
gross appearance of treated wounds (crusting, infiltrates, exudates) ([4]; first 14 days, 1% formulation): clear of crusting, infiltrates, and exudates
healing vs control group by wound width ([4]; over a 14-day period, 1% formulation): faster than the control group
Mean Vancouver Scale Scar Scoring, Height ([1]; wound C, 0.25% formulation): 0
Mean Vancouver Scale Scar Scoring, Pigmentation ([1]; wound C, 0.25% formulation): 1
Mean Vancouver Scale Scar Scoring, Pliability ([1]; wound C, 0.25% formulation): 2.5
Mean Vancouver Scale Scar Scoring, Vascularity ([1]; wound C, 0.25% formulation): 0
Mean Vancouver Scale Scar Scoring, Height ([1]; wound L, 1% formulation): 0
Mean Vancouver Scale Scar Scoring, Pigmentation ([1]; wound L, 1% formulation): 1
Mean Vancouver Scale Scar Scoring, Pliability ([1]; wound L, 1% formulation): 1.0
Mean Vancouver Scale Scar Scoring, Vascularity ([1]; wound L, 1% formulation): 0
Mean Wound Width at Widest Margin [2, 5]: 3.1 ± 0.3 mm
Mean Wound Width at Widest Margin [2, 6]: 3.0 ± 0.2 mm
Mean Wound Width at Widest Margin [2, 7]: 2.5 ± 0.2 mm
Mean Wound Width at Widest Margin [2, 8]: 2.4 ± 0.3 mm
Mean Wound Width at Widest Margin [2, 9]: 1.7 ± 0.2 mm
Mean Wound Width at Widest Margin [2, 10]: 1.8 ± 0.4 mm
Mean Wound Width at Widest Margin [2, 11]: 1.4 ± 0.2 mm
Mean Wound Width at Widest Margin [2, 12]: 1.5 ± 0.2 mm
Mean Wound Width at Widest Margin [2, 13]: 1.1 ± 0.2 mm
Mean Wound Width at Widest Margin [2, 14]: 1.0 ± 0.2 mm
Mean Wound Width at Widest Margin [2, 15]: 0.6 ± 0.2 mm
Mean Wound Width at Widest Margin [2, 16]: 0.6 ± 0.2 mm
Mean Wound Width at Widest Margin [2, 17]: 0.1 ± 0.2 mm
Mean Wound Width at Widest Margin [2, 18]: 0.2 ± 0.3 mm
Mean Wound Width at Widest Margin [2, 19]: 0 mm
Mean Wound Width at Widest Margin [2, 20]: 0 mm
Mean Wound Width at Widest Margin [2, 21]: 0 mm
Mean Wound Width at Widest Margin [2, 22]: 0 mm
Mean Wound Width at Widest Margin [2, 23]: 0 mm
Mean Wound Width at Widest Margin [2, 24]: 0 mm
Mean Wound Width at Widest Margin [2, 25]: 0 mm
Mean Wound Width at Widest Margin [2, 26]: 0 mm
